Source: patent US20220135591A1, “HETEROCYCLIC COMPOUNDS AS INHIBITORS OF MONOACYLGLYCEROL LIPASE (MAGL)” (Hoffmann-La Roche Inc., priority 2019, published 2022)

biological target: T1, MAGL (Homo sapiens, UniProt Q99685); assay: 2-AG assay: MAGL inhibitory activity by hydrolysis of 2-arachidonoylglycerol to arachidonic acid, mass spectrometry; type: biochemical; conditions: 2-AG assay (values marked [b])
T1 sequence (Q99685 1-303): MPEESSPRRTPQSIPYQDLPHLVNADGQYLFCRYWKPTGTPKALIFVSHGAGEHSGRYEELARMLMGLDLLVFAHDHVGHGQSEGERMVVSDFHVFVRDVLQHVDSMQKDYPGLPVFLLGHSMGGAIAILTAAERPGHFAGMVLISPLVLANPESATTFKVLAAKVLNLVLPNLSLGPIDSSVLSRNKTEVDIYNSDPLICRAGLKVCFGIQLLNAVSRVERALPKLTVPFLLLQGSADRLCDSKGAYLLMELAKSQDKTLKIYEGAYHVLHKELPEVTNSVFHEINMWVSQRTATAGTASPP
Description: Alternatively, compounds were profiled for MAGL inhibitory activity by determining the enzymatic activity by following the hydrolysis of the natural substrate 2-arachidonoylglycerol (2-AG) resulting in arachidonic acid, which can be followed by mass spectrometry. This assay is hereinafter abbreviated “2-AG assay”.
The 2-AG assay was carried out in 384 well assay plates (PP, Greiner Cat #784201) in a total volume of 20 μL. Compound dilutions were made in 100% DMSO (VWR Chemicals 23500.297) in a polypropylene plate in 3-fold dilution steps to give a final concentration range in the assay from 12.5 μM to […]. 0.25 μL compound dilutions (100% DMSO) were added to 9 μL MAGL in assay buffer (50 mM TRIS (GIBCO, 15567-027), 1 mM EDTA (Fluka, 03690-100 mL), 0.01% (v/v) Tween. After shaking, the plate was incubated for 15 min at RT. To start the reaction, 10 μL 2-arachidonoylglycerol in assay buffer was added. The final concentrations in the assay was […] and 8 μM 2-arachidonoylglyerol. After shaking and 30 min incubation at RT, the reaction was quenched by the addition of 40 μL of ACN containing 4 μM of d8-arachidonic acid. The amount of arachidonic acid was traced by an online SPE system (Agilent Rapidfire) coupled to a triple quadrupole mass spectrometer (Agilent 6460). A C18 SPE cartridge (G9205A) was used in an ACN/water liquid setup. The mass spectrometer was operated in negative electrospray mode following the mass transitions 303.1→259.1 for arachidonic acid and 311.1→267.0 for d8-arachidonic acid. The activity of the compounds was calculated based on the ratio of intensities [arachidonic acid/d8-arachidonic acid].

Structure (SMILES) | IC50
CC(C)(C)Cn1cc(-c2ccc(C(=O)N3CCN(c4nc5nc(Cl)ccc5o4)CC3)cc2F)nn1 [Example 86, (4-(5-chlorooxazolo[4,5-b]pyridin-2-yl)piperazin-1-yl)(3-fluoro-4-(1-neopentyl-1H-1,2,3-triazol-4-yl)phenyl)methanone] | 2 nM
Cc1cc(C(=O)N2CCN(c3nc4nc(Cl)ccc4o3)CC2)cnc1-n1cnc(C(C)(C)C)n1 [Example 129, [6-(3-tert-butyl-1,2,4-triazol-1-yl)-5-methylpyridin-3-yl]-[4-(5-chloro-[1,3]oxazolo[4,5-b]pyridin-2-yl)piperazin-1-yl]methanone] | 52 nM
Cc1cc(C(=O)N2CCN(c3nc4nc(Cl)ccc4o3)CC2)cnc1-c1cn(CC(C)(C)C)nn1 [Example 271, (4-(5-chlorooxazolo[4,5-b]pyridin-2-yl)piperazin-1-yl)(5-methyl-6-(1-neopentyl-1H-1,2,3-triazol-4-yl)pyridin-3-yl)methanone] | 74 nM
CC(C)(C)c1nc(-c2ccc(C(=O)N3C4CCC3CN(c3nc5nc(Cl)ccc5o3)C4)cc2)no1 [Example 297, [4-(5-tert-butyl-1,2,4-oxadiazol-3-yl)phenyl]-[3-(5-chlorooxazolo[4,5-b]pyridin-2-yl)-3,8-diazabicyclo[3.2.1]octan-8-yl]methanone] | 100 nM
C[C@@H]1CN(C(=O)c2ccc(-c3cn(CC(C)(C)C)nn3)cc2)CCN1c1nc2nc(Cl)ccc2o1 [Example 273, [(3R)-4-(5-chlorooxazolo[4,5-b]pyridin-2-yl)-3-methyl-piperazin-1-yl]-[4-[1-(2,2-dimethylpropyl)triazol-4-yl]phenyl]methanone] | 20 nM
Cc1ccc2oc(N3CCN(C(=O)c4ccc(-c5ncn(C(C)(C)C)n5)c(C(F)(F)F)c4)CC3)nc2n1 [Example 111, [4-(1-tert-butyl-1,2,4-triazol-3-yl)-3-(trifluoromethyl)phenyl]-[4-(5-methyl-[1,3]oxazolo[4,5-b]pyridin-2-yl)piperazin-1-yl]methanone] | 28 nM
Cc1ccc2oc(N3CCN(C(=O)c4ccc(-c5nnn(CC(C)(C)C)n5)c(F)c4)CC3)nc2n1 [Example 303, [4-[2-(2,2-dimethylpropyl)tetrazol-5-yl]-3-fluoro-phenyl]-[4-(5-methyloxazolo[4,5-b]pyridin-2-yl)piperazin-1-yl]methanone] | 7 nM
Cc1nc(C(=O)N2CCN(c3nc4nc(Cl)ccc4o3)CC2)cnc1OCC1(C(F)(F)F)CC1 [Example 137, [4-(5-chlorooxazolo[4,5-b]pyridin-2-yl)piperazin-1-yl]-[6-methyl-5-[[1-(trifluoromethyl)cyclopropyl]methoxy]pyrazin-2-yl]methanone] | 34 nM
Cc1ccc2oc(N3CCN(C(=O)c4cnc(-c5cnn(CC(C)(C)C)c5)c(C)c4)CC3)nc2n1 [Example 248, [6-[1-(2,2-dimethylpropyl)pyrazol-4-yl]-5-methylpyridin-3-yl]-[4-(5-methyl-[1,3]oxazolo[4,5-b]pyridin-2-yl)piperazin-1-yl]methanone] | 14 nM
Cc1ccc2oc(N3CCN(C(=O)c4cnc(-n5cnc(C(C)(C)C)n5)c(C)c4)CC3)nc2n1 [Example 128, [6-(3-tert-butyl-1,2,4-triazol-1-yl)-5-methylpyridin-3-yl]-[4-(5-methyl-[1,3]oxazolo[4,5-b]pyridin-2-yl)piperazin-1-yl]methanone] | 107 nM
O=C(c1ccc(-c2cn(CC3COC3)nn2)cc1)N1CCN(c2nc3nc(Cl)ccc3o2)CC1 [Example 114, [4-(5-chloro-[1,3]oxazolo[4,5-b]pyridin-2-yl)piperazin-1-yl]-[4-[1-(oxetan-3-ylmethyl)triazol-4-yl]phenyl]methanone] | 5550 nM

More lines, in order of falling IC50, values ahead:

IC50 | Structure (SMILES)
677 nM | Cc1cc(C(=O)N2CCN(c3nc4nc(Cl)ccc4o3)CC2)cnc1OCC1(C#N)CC1 [Example 163, 1-(((5-(4-(5-chlorooxazolo[4,5-b]pyridin-2-yl)piperazine-1-carbonyl)-3-methylpyridin-2-yl)oxy)methyl)cyclopropane-1-carbonitrile]
609 nM | CC1(Cn2cc(-c3ccc(C(=O)N4CCN(c5nc6nc(Cl)ccc6o5)CC4)cc3)nn2)COC1 [Example 101, (4-(5-chlorooxazolo[4,5-b]pyridin-2-yl)piperazin-1-yl)(4-(1-((3-methyloxetan-3-yl)methyl)-1H-1,2,3-triazol-4-yl)phenyl)methanone]
523 nM | Cc1ccc2oc(N3CCN(C(=O)c4ccc(-c5cn(CC(F)(F)F)nn5)cc4)CC3)nc2n1 [Example 99, (4-(5-methyloxazolo[4,5-b]pyridin-2-yl)piperazin-1-yl)(4-(1-(2,2,2-trifluoroethyl)-1H-1,2,3-triazol-4-yl)phenyl)methanone]
475 nM | Cc1cc(C(=O)N2CCN(c3nc4nc(Cl)ccc4o3)CC2)cnc1OCC1CCCO1 (centres unmarked) [Example 166, (4-(5-chlorooxazolo[4,5-b]pyridin-2-yl)piperazin-1-yl)(5-methyl-6-((tetrahydrofuran-2-yl)methoxy)pyridin-3-yl)methanone]
452 nM | O=C(C#Cc1ccc(Cl)cc1)N1CCN(c2nc3nc(Cl)ccc3o2)CC1 [Example 103, 1-(4-(5-chlorooxazolo[4,5-b]pyridin-2-yl)piperazin-1-yl)-3-(4-chlorophenyl)prop-2-yn-1-one]
387 nM | Cc1ccc2oc(N3CCN(C(=O)c4ccc(OCC5(C(F)(F)F)CC5)c(C)n4)CC3)nc2n1 [Example 139, [4-(5-methyloxazolo[4,5-b]pyridin-2-yl)piperazin-1-yl]-[6-methyl-5-[[1-(trifluoromethyl)cyclopropyl]methoxy]-2-pyridyl]methanone]
172 nM | Cc1ccc2oc(N3CCN(C(=O)c4ccc(-n5cnc(C(C)(C)C)n5)c(Cl)c4)CC3)nc2n1 [Example 291, [4-(3-tert-butyl-1,2,4-triazol-1-yl)-3-chloro-phenyl]-[4-(5-methyloxazolo[4,5-b]pyridin-2-yl)piperazin-1-yl]methanone]
116 nM | Cc1ccc2oc(N3CCN(C(=O)c4ccc(-c5cn(C(C)(C)CF)nn5)cc4)CC3)nc2n1 [Example 135, (4-(1-(1-fluoro-2-methylpropan-2-yl)-1H-1,2,3-triazol-4-yl)phenyl)(4-(5-methyloxazolo[4,5-b]pyridin-2-yl)piperazin-1-yl)methanone]
95 nM | CC(C)(F)Cc1nnc(-c2ccc(C(=O)N3CCN(c4nc5nc(Cl)ccc5o4)CC3)cc2F)o1 [Example 298, [4-(5-chlorooxazolo[4,5-b]pyridin-2-yl)piperazin-1-yl]-[3-fluoro-4-[5-(2-fluoro-2-methyl-propyl)-1,3,4-oxadiazol-2-yl]phenyl]methanone]
88 nM | Cc1ccc2oc(N3CCN(C(=O)c4ccc(-c5cn(C67CC(C6)C7)nn5)cc4)CC3)nc2n1 [Example 94, (4-(1-(bicyclo[1.1.1]pentan-1-yl)-1H-1,2,3-triazol-4-yl)phenyl)(4-(5-methyloxazolo[4,5-b]pyridin-2-yl)piperazin-1-yl)methanone]
69 nM | CC(C)Cc1nnc(-c2ccc(C(=O)N3CCN(c4nc5nc(Cl)ccc5o4)CC3)cc2)o1 [Example 267, (4-(5-chlorooxazolo[4,5-b]pyridin-2-yl)piperazin-1-yl)(4-(5-isobutyl-1,3,4-oxadiazol-2-yl)phenyl)methanone]
45 nM | CC(C)(C)Cn1cc(-c2ccc(C(=O)N3CCN(c4nc5nc(F)ccc5o4)CC3)cc2)nn1 [Example 286, [4-[1-(2,2-dimethylpropyl)triazol-4-yl]phenyl]-[4-(5-fluorooxazolo[4,5-b]pyridin-2-yl)piperazin-1-yl]methanone]
42 nM | Cc1cc(C(=O)N2CCN(c3nc4nc(Cl)ccc4o3)CC2)cnc1OCc1cc(F)cc(C#N)c1 [Example 165, 3-(((5-(4-(5-chlorooxazolo[4,5-b]pyridin-2-yl)piperazine-1-carbonyl)-3-methylpyridin-2-yl)oxy)methyl)-5-fluorobenzonitrile]
9 nM | O=C(c1ccc(-c2noc(C34CC(C3)C4)n2)cc1)N1CCN(c2nc3nc(Cl)ccc3o2)CC1 [Example 105, [4-[5-(3-bicyclo[1.1.1]pentanyl)-1,2,4-oxadiazol-3-yl]phenyl]-[4-(5-chlorooxazolo[4,5-b]pyridin-2-yl)piperazin-1-yl]methanone]
5 nM | Cc1ccc2oc(N3CCN(C(=O)c4ccc(-c5cnn(CC(C)(C)C)n5)c(F)c4)CC3)nc2n1 [Example 85, (3-fluoro-4-(2-neopentyl-2H-1,2,3-triazol-4-yl)phenyl)(4-(5-methyloxazolo[4,5-b]pyridin-2-yl)piperazin-1-yl)methanone]
